Assay results as given in patent US20230212222A1 (ANYGEN CO., LTD., priority 2020, published 2023).
Square brackets hold non-standard residues; d marks the D form. Peptide text beside a SMILES is read from it. * marks the point of attachment. His(Trt) = N[C@@H](Cc1cn(C(c2ccccc2)(c2ccccc2)c2ccccc2)cn1)C(=O)O; His(τ-CHPh2) = N[C@@H](Cc1cn(C(c2ccccc2)c2ccccc2)cn1)C(=O)O; Biotin = O=C1N[C@H]2[C@H](CS[C@H]2CCCCC(=O)*)N1; dPhe(4-CF3) = N[C@H](Cc1ccc(C(F)(F)F)cc1)C(=O)O; Tyr(3-NH2) = Nc1cc(C[C@H](N)C(=O)O)ccc1O; dPhe(4-Me) = Cc1ccc(C[C@@H](N)C(=O)O)cc1; Phe(4-Me) = Cc1ccc(C[C@H](N)C(=O)O)cc1; d2Nal = N[C@H](Cc1ccc2ccccc2c1)C(=O)O; d3Pal = N[C@H](Cc1cccnc1)C(=O)O; Octanoyl = CCCCCCCC(=O)*; Orn = NCCC[C@H](N)C(=O)O; Boc = CC(C)(C)OC(=O)*

Key:
GPR39 [1] = biological target: T1, GPR39 (Homo sapiens, UniProt O43194)
T1 sequence (O43194 1-453): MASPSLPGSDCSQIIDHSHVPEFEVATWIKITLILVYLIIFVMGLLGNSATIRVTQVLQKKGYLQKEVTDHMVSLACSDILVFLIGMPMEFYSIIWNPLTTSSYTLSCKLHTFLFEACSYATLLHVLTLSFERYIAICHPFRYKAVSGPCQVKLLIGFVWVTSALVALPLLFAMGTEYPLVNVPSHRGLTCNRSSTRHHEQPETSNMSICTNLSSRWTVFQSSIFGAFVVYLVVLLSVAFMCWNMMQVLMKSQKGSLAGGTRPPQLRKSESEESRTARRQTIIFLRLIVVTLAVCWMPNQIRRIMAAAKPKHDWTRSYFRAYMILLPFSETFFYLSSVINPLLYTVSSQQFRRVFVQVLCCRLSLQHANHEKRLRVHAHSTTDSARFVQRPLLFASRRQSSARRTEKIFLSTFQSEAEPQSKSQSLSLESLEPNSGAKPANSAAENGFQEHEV
Procedure: (§1) Specifically, the fibroblast cell line CV-1 (1×10^5 cells/ml, Korea Cell Line Bank) was cultured in a 96 well cell culture plate for 24 hours, and then treated with GPR39 inserted into adenovirus and SRE (serum response element) luciferase at 50 MOI (multiplicity of infection) and 25 MOI virus for 3 hours, respectively, and then cultured for 24 hours.

GPR39 [2] = biological target: T1, GPR39; test: luciferase assay system (SRE luciferase reporter gene) for GPR39 in CV-1 cells; settings: for EC50: EC50, CV-1 cells, GPR39 and SRE luciferase adenovirus, treated 6 hours, luminometer; for activity level for GPR39 (in words): comment on Table 3
Procedure: as §1

SMILES | ECmax (-fold induction over basal) (GPR39 [1]) | EC50 (GPR39 [2]) [µM] | activity level for GPR39 (in words) (GPR39 [2])
CCCCCCCC(=O)NCCCC[C@H](NC(=O)[C@@H](N)Cc1cn(-c2ccccc2)cn1)C(=O)N[C@H](Cc1ccc(C)cc1)C(=O)N[C@@H](Cc1ccc(O)cc1)C(=O)O [HKFY-58, ((R)-2-((S)-2-((S)-2-amino-3-(1-phenyl-1H-imidazol-4-yl)propanamido)-6-octanamidohexanamido)-3-(p-tolyl)propanoyl)-L-tyrosine] | 9.12 ± 2.1 -fold induction over basal | 0.02 ± 0.002 | –
CCCCCCCC(=O)NCCCC[C@H](NC(=O)[C@@H](N)Cc1cn(-c2ccc(C(C)(C)C)cc2)cn1)C(=O)N[C@H](Cc1ccc(C)cc1)C(=O)N[C@@H](Cc1ccc(O)cc1)C(=O)O [HKFY-61, ((R)-2-((S)-2-((S)-2-amino-3-(1-(4-(tert-butyl)phenyl)-1H-imidazol-4-yl)propanamido)-6-octanamidohexanamido)-3-(p-tolyl)propanoyl)-L-tyrosine] | 9.88 ± 1.8 -fold induction over basal | 0.02 ± 0.003 | –
CCCCCCCC(=O)NCCCC[C@H](NC(=O)[C@@H](N)Cc1c[nH]c(-c2cccs2)n1)C(=O)N[C@H](Cc1ccc(C)cc1)C(=O)N[C@@H](Cc1ccc(O)cc1)C(=O)O [HKFY-63, ((R)-2-((S)-2-((S)-2-amino-3-(2-(thiophen-2-yl)-1H-imidazol-4-yl)propanamido)-6-octanamidohexanamido)-3-(p-tolyl)propanoyl)-L-tyrosine] | 13.5 ± 1.8 -fold induction over basal | – | higher activity level than other HJKFY derivatives
CCCCCCCC(=O)NCCCC[C@H](NC(=O)[C@@H](N)Cc1cn(C(c2ccccc2)c2ccc(O)cc2)cn1)C(=O)N[C@H](Cc1ccc(C)cc1)C(=O)N[C@@H](Cc1ccc(O)cc1)C(=O)O (stereo partly drawn) [HKFY-65, ((2R)-2-((2S)-2-((2S)-2-amino-3-(1-((4-hydroxyphenyl)(phenyl)methyl)-1H-imidazol-4-yl)propanamido)-6-octanamidohexanamido)-3-(p-tolyl)propanoyl)-L-tyrosine] | 18.3 ± 2.2 -fold induction over basal | – | higher activity level than other HJKFY derivatives
CCCCCCCC(=O)NCCCC[C@H](NC(=O)[C@@H](N)Cc1cn(C(c2ccccc2)c2ccccc2)cn1)C(=O)N[C@H](Cc1ccc(C)cc1)C(=O)N[C@@H](Cc1ccc(O)cc1)C(N)=O [HKFY-66, N-((S)-5-((S)-2-amino-3-(1-benzhydryl-1H-imidazol-4-yl)propanamido)-6-(((R)-1-(((S)-1-amino-3-(4-hydroxyphenyl)-1-oxopropan-2-yl)amino)-1-oxo-3-(p-tolyl)propan-2-yl)amino)-6-oxohexyl)octanamide] (H-[His(τ-CHPh2)]K(Octanoyl)[dPhe(4-Me)]Y-NH2) | 20.2 ± 3.5 -fold induction over basal | 0.011 ± 0.001 | –
CCCCCCCC(=O)NCCCC[C@H](NC(=O)[C@H](Cc1cn(C(c2ccccc2)c2ccccc2)cn1)NC(=O)CCCC[C@@H]1SC[C@@H]2NC(=O)N[C@@H]21)C(=O)N[C@@H](Cc1ccc(C)cc1)C(=O)N[C@@H](Cc1ccc(O)cc1)C(=O)O [HKFY-72, ((S)-2-((S)-2-((S)-3-(1-benzhydryl-1H-imidazol-4-yl)-2-(5-((3aS,4S,6aR)-2-oxohexahydro-1H-thieno[3,4-d]imidazol-4-yl)pentanamido)propanamido)-6-octanamidohexanamido)-3-(p-tolyl)propanoyl)-L-tyrosine] (Biotin-[His(τ-CHPh2)]K(Octanoyl)[Phe(4-Me)]Y-OH) | 10.4 ± 1.12 -fold induction over basal | 0.011 ± 0.002 | –
CCCCCCCC(=O)NCCCC[C@H](NC(=O)[C@@H](N)Cc1cn(Cc2ccc(-c3ccccc3-c3nnn[nH]3)cc2)cn1)C(=O)N[C@H](Cc1ccc(C)cc1)C(=O)N[C@@H](Cc1ccc(O)cc1)C(=O)O [HKFY-77, ((R)-2-((S)-2-((S)-3-(1-((2′-(1H-tetrazol-5-yl)-[1,1′-biphenyl]-4-yl)methyl)-1H-imidazol-4-yl)-2-aminopropanamido)-6-octanamidohexanamido)-3-(p-tolyl)propanoyl)-L-tyrosine] | 11.6 ± 2.14 -fold induction over basal | 0.007 ± 0.002 | –
CCCCCCCC(=O)NCCCC[C@H](NC(=O)[C@H](Cc1c[nH]c2ccccc12)NC(=O)OC(C)(C)C)C(=O)N[C@H](Cc1ccc(C)cc1)C(=O)N[C@@H](Cc1ccc(O)cc1)C(=O)O [HKFY-78, ((R)-2-((S)-2-((S)-2-((tert-butoxycarbonyl)amino)-3-(1H-indol-3-yl)propanamido)-6-octanamidohexanamido)-3-(p-tolyl)propanoyl)-L-tyrosine] (Boc-WK(Octanoyl)[dPhe(4-Me)]Y-OH) | 11.4 ± 1.54 -fold induction over basal | 0.009 ± 0.001 | –

Second part, led by results:

ECmax (-fold induction over basal) (GPR39 [1]) | EC50 (GPR39 [2]) [µM] | SMILES | activity level for GPR39 (in words) (GPR39 [2])
16 ± 1.5 -fold induction over basal | 0.007 ± 0.001 | CCCCCCCC(=O)NCCCC[C@H](NC(=O)[C@@H](N)Cc1cn(C(c2ccccc2)c2ccc(OC)cc2)cn1)C(=O)N[C@H](Cc1ccc(C)cc1)C(=O)N[C@@H](Cc1ccc(O)cc1)C(=O)O (stereo partly drawn) [HKFY-64, ((2R)-2-((2S)-2-((2S)-2-amino-3-(1-((4-methoxyphenyl)(phenyl)methyl)-1H-imidazol-4-yl)propanamido)-6-octanamidohexanamido)-3-(p-tolyl)propanoyl)-L-tyrosine] | higher activity level than other HJKFY derivatives
10.1 ± 1.6 -fold induction over basal | 0.02 ± 0.001 | CCCCCCCC(=O)NCCCC[C@H](NC(=O)[C@@H](N)Cc1cn(C(c2ccccc2)c2ccccc2)cn1)C(=O)N[C@H](Cc1ccc(C)cc1)C(=O)N[C@@H](Cc1ccc(O)c(N)c1)C(=O)O [HKFY-70, (S)-2-((R)-2-((S)-2-((S)-2-amino-3-(1-benzhydryl-1H-imidazol-4-yl)propanamido)-6-octanamidohexanamido)-3-(p-tolyl)propanamido)-3-(3-amino-4-hydroxyphenyl)propanoic acid] (H-[His(τ-CHPh2)]K(Octanoyl)[dPhe(4-Me)][Tyr(3-NH2)]-OH) | –
16.4 ± 2.51 -fold induction over basal | 0.012 ± 0.003 | CCCCCCCC(=O)NCCC[C@H](NC(=O)[C@@H](N)Cc1cn(C(c2ccccc2)c2ccccc2)cn1)C(=O)N[C@H](Cc1ccc(C)cc1)C(=O)N[C@@H](Cc1ccc(O)cc1)C(=O)O [HKFY-71, ((R)-2-((S)-2-((S)-2-amino-3-(1-benzhydryl-1H-imidazol-4-yl)propanamido)-5-octanamidopentanamido)-3-(p-tolyl)propanoyl)-L-tyrosine] (H-[His(τ-CHPh2)][Orn](Octanoyl)[dPhe(4-Me)]Y-OH) | –
11.6 ± 2.3 -fold induction over basal | 0.023 ± 0.001 | CCCCCCCC(=O)NCCCC[C@H](NC(=O)[C@@H](N)Cc1cn(C(c2ccccc2)(c2ccccc2)c2ccccc2)cn1)C(=O)N[C@H](Cc1cccnc1)C(=O)N[C@@H](Cc1ccc(O)cc1)C(=O)O [HKFY-73, ((R)-2-((S)-2-((S)-2-amino-3-(1-trityl-1H-imidazol-4-yl)propanamido)-6-octanamidohexanamido)-3-(pyridin-3-yl)propanoyl)-L-tyrosine] (H-[His(Trt)]K(Octanoyl)[d3Pal]Y-OH) | –
18.8 ± 3.2 -fold induction over basal | 0.008 ± 0.001 | CCCCCCCC(=O)NCCCC[C@H](NC(=O)[C@@H](N)Cc1cn(C(c2ccccc2)(c2ccccc2)c2ccccc2)cn1)C(=O)N[C@H](Cc1ccc2ccccc2c1)C(=O)N[C@@H](Cc1ccc(O)cc1)C(=O)O [HKFY-74, ((R)-2-((S)-2-((S)-2-amino-3-(1-trityl-1H-imidazol-4-yl)propanamido)-6-octanamidohexanamido)-3-(naphthalen-2-yl)propanoyl)-L-tyrosine] (H-[His(Trt)]K(Octanoyl)[d2Nal]Y-OH) | –
14.2 ± 3.75 -fold induction over basal | 0.007 ± 0.001 | CCCCCCCC(=O)NCCCC[C@H](NC(=O)[C@@H](N)Cc1cn(C(c2ccccc2)(c2ccccc2)c2ccccc2)cn1)C(=O)N[C@H](Cc1ccc(C(F)(F)F)cc1)C(=O)N[C@@H](Cc1ccc(O)cc1)C(=O)O [HKFY-76, ((R)-2-((S)-2-((S)-2-amino-3-(1-trityl-1H-imidazol-4-yl)propanamido)-6-octanamidohexanamido)-3-(4-(trifluoromethyl)phenyl)propanoyl)-L-tyrosine] (H-[His(Trt)]K(Octanoyl)[dPhe(4-CF3)]Y-OH) | –
